This assay concerns the target T1, mouse VISTA (mVISTA) (Mus musculus, UniProt Q9D659).
T1 construct: expressed in transfected cells; host or cells: Human embryonic kidney 293T cells
T1 sequence (Q9D659 33-308): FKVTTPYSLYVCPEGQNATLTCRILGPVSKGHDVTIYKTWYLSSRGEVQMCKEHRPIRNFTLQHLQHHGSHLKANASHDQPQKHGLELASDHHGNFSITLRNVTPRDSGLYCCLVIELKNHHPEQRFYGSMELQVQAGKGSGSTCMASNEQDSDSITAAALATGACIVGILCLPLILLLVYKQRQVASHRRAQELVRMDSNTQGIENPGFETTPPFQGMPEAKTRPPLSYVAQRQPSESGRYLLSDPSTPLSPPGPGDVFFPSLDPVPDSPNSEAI
Briefly: Cell-Based Binding High-Content Assay For mVISTA (HC CBA mVISTA). The settings on record: cell-based binding high-content assay; read-out: HC CBA mVISTA IC50. Put shortly: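 mVISTA-293T, 4,000 cells/well; cpd ± washout step; biotin-peptide 2 nM final, 30 min RT; SA-Alexa 647 30 min; formaldehyde/Hoechst fix; HCS imaging; 4PL IC50.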

Starred links: 1 amine or outer side, 2 acyl side, 3 side chain; linkers in the order of their positions; H or OH if unused. Positions of bridges follow the written chain, without caps; N, C: chain ends. Non-standard residues stand in square brackets, D forms with d. Residues, ends and D or L forms follow the SMILES beside them. Tyr(3-Cl) = N[C@@H](Cc1ccc(O)c(Cl)c1)C(=O)O; Phe(3-Me) = Cc1cccc(C[C@H](N)C(=O)O)c1; γGlu = O=C(O)[C@H](CCC(=O)[*:2])N[*:1]; 2Nal = N[C@@H](Cc1ccc2ccccc2c1)C(=O)O; βAsp = O=C(O)[C@H](CC(=O)[*:2])N[*:1]; Ahp(2) = CCCCC[C@H](N)C(=O)O; NMeNle = CCCC[C@H](NC)C(=O)O; Tle = CC(C)(C)[C@H](N)C(=O)O; NHexGly = CCCCCCNCC(=O)O; Nle = CCCC[C@H](N)C(=O)O; Orn = NCCC[C@H](N)C(=O)O; Aun = NCCCCCCCCCCC(=O)O; AEEA = NCCOCCOCC(=O)O

This note sets out measurements from patent publication US20240218022A1, “ANTI-VISTA MACROCYCLIC PEPTIDES AND COMPOSITIONS” (BRISTOL-MYERS SQUIBB COMPANY, priority 2022, published 2024).

As for `CCCCCCN1CC(=O)N[C@@H](Cc2ccc(O)cc2)C(=O)N[C@@H](CCCC)C(=O)N[C@@H](CC(N)=O)C(=O)N[C@@H](CCCNC(=N)N)C(=O)N(C)[C@@H](CCCC)C(=O)N[C@@H](CCCCC)C(=O)N2CCC[C@H]2C(=O)N[C@@H](C(C)(C)C)C(=O)N[C@@H](CO)C(=O)N[C@H](C(=O)NCC(=O)NCCOCCOCC(=O)N[C@@H](CCC(=O)NCCOCCOCC(=O)NCCCCCCCCCCC(=O)O)C(=O)O)CSCC(=O)N[C@@H](Cc2ccccc2)C(=O)N[C@@H](Cc2cccc(C)c2)C(=O)N[C@@H](CC(=O)O)C1=O` [compound 2330] ({CH2CO}-F[Phe(3-Me)]D[NHexGly]Y[Nle]NR[NMeNle][Ahp(2)]P[Tle]SCG[AEEA][γGlu][AEEA][Aun]-OH; thioether N-14), the IC50 turned out to be 18 nM.
Under `CCCCCCN1CC(=O)N[C@@H](Cc2ccc(O)cc2)C(=O)N[C@@H](CCCC)C(=O)N[C@@H](CC(N)=O)C(=O)N[C@@H](CCCNC(=N)N)C(=O)N(C)[C@@H](CCCC)C(=O)N[C@@H](CCCCC)C(=O)N2CCC[C@H]2C(=O)N[C@@H](C(C)(C)C)C(=O)N[C@@H](CO)C(=O)N[C@H](C(=O)NCC(=O)NCCOCCOCC(=O)N[C@@H](CCC(=O)NCCOCCOCC(=O)NCCCCCCCCCCC(=O)O)C(=O)O)CSCC(=O)N[C@@H](Cc2ccc3ccccc3c2)C(=O)N[C@@H](Cc2ccc(O)cc2)C(=O)N[C@@H](CC(=O)O)C1=O` [compound 2333] ({CH2CO}-[2Nal]YD[NHexGly]Y[Nle]NR[NMeNle][Ahp(2)]P[Tle]SCG[AEEA][γGlu][AEEA][Aun]-OH; thioether N-14) stands 46.8 nM.
Under `CCCCCCN1CC(=O)N[C@@H](Cc2ccc(O)c(Cl)c2)C(=O)N[C@@H](CC(C)C)C(=O)N[C@@H](CC(N)=O)C(=O)N[C@@H](CCCN)C(=O)N(C)[C@@H](CCCC)C(=O)N[C@@H](CCCCC)C(=O)N2CCC[C@H]2C(=O)N[C@@H](C(C)(C)C)C(=O)N[C@@H](CO)C(=O)N[C@H](C(=O)N[C@@H](CC(=O)NCCOCCOCC(=O)N[C@@H](CC(=O)O)C(=O)NCCOCCOCC(=O)NCCCCCCCCCCC(=O)O)C(=O)O)CSCC(=O)N[C@@H](Cc2ccccc2)C(=O)N[C@@H](Cc2ccc(O)cc2)C(=O)N[C@@H](CC(=O)O)C1=O` [compound 2336] ({CH2CO}-FYD[NHexGly][Tyr(3-Cl)]LN[Orn][NMeNle][Ahp(2)]P[Tle]SC[βAsp][AEEA]D[AEEA][Aun]-OH; thioether N-14) stands 24 nM.
